Results: ChEMBL document CHEMBL5042489, “Inhibitors of the Hippo Pathway Kinases STK3/MST2 and STK4/MST1 Have Utility for the Treatment of Acute Myeloid Leukemia” (J Med Chem, 2022)
Calls of active or inactive are those of the source. The rule behind the calls is not given here.

Assays:
[1] = Drug concentration in C57BL/6 mouse liver at 10 mg/kg, ip administered for 2 hrs; type: ADME, organism-based; details: read-out: Ct
[2] = Half life in C57BL/6 mouse at 10 mg/kg, ip measured upto 24 hrs by LC-MS/MS analysis; type: ADME, organism-based; details: in vivo
[3] = Cmax in C57BL/6 mouse at 10 mg/kg, ip measured upto 24 hrs by LC-MS/MS analysis; type: ADME, organism-based; parameters: route intraperitoneal, dose 10 mg/kg, time <=24; details: in vivo
[4] = Drug concentration in C57BL/6 mouse liver at 10 mg/kg, ip administered for 3 hrs; type: ADME, organism-based; details: read-out: Ct
[5] = target: Leucine-rich repeat serine/threonine-protein kinase 2 (Homo sapiens, UniProt Q5S007); assay: Displacement of K5 tracer from full length C-terminal NanoLuc fused human LRRK2 expressed in HEK293T cells incubated for 2 hrs by NanoBRET assay; type: cell-based
Sequence of Leucine-rich repeat serine/threonine-protein kinase 2 (Q5S007 whole entry, the tested form may be a part): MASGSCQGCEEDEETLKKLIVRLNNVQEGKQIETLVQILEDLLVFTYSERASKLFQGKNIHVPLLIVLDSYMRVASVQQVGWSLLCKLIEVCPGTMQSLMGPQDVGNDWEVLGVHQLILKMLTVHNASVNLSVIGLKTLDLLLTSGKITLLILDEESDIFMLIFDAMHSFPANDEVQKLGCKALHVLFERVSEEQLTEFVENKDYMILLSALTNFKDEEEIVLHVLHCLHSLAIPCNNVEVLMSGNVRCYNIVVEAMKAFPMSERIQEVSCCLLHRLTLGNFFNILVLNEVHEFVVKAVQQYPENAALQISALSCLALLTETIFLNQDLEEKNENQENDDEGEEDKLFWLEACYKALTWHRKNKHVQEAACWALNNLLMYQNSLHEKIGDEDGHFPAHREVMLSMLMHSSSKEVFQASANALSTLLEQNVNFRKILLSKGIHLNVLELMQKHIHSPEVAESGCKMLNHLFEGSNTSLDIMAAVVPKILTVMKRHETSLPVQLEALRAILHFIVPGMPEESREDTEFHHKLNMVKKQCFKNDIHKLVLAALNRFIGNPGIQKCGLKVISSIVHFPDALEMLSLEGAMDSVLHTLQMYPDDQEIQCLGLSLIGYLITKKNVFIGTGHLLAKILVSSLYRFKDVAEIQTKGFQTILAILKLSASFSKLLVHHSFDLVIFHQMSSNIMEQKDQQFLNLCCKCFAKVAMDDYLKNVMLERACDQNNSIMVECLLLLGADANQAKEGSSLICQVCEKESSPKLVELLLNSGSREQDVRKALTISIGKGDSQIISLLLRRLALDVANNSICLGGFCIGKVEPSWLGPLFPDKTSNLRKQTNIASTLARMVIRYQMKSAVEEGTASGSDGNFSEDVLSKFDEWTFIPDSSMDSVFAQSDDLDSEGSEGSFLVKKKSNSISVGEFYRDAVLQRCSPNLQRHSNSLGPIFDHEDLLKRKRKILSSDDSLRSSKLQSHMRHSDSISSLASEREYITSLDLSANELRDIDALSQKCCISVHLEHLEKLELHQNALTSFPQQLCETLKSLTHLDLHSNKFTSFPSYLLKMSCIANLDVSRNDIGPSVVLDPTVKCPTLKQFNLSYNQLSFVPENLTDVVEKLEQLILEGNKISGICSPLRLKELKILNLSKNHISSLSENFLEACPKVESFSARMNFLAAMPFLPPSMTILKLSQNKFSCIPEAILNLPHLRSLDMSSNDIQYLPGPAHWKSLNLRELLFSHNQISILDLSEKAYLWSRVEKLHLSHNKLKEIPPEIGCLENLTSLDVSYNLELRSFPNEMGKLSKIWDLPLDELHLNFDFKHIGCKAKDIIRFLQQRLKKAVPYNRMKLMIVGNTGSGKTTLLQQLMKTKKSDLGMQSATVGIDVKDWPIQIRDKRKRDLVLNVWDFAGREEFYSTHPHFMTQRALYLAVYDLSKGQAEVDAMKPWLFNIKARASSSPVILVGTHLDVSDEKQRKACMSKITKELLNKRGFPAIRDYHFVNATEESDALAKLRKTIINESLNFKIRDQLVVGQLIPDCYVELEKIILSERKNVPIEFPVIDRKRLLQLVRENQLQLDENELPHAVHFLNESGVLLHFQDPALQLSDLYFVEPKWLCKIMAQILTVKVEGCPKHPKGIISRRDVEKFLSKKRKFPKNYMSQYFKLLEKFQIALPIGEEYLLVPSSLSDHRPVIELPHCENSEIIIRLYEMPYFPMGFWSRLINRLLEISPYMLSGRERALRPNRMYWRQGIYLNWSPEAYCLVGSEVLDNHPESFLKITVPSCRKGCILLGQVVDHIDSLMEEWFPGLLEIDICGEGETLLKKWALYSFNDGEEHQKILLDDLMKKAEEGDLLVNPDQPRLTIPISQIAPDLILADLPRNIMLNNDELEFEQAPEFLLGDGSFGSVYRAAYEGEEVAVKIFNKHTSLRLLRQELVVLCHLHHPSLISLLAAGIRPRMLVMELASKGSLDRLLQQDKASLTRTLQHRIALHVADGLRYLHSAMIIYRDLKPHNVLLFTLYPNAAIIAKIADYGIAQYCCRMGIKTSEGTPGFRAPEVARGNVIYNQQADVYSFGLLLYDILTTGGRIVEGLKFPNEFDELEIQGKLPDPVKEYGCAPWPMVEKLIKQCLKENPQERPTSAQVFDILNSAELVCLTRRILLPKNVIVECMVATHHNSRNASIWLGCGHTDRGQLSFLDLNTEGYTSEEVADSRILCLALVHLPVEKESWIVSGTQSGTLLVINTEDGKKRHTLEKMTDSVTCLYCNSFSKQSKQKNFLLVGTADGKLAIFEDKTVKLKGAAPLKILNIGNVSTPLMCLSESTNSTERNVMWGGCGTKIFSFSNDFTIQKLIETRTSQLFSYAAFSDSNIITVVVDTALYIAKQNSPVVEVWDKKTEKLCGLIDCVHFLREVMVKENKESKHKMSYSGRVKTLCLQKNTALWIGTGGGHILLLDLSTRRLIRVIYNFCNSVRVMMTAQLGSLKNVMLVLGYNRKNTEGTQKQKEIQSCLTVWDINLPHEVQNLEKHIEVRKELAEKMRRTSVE

[6] = AUC (0 to t) in C57BL/6 mouse at 10 mg/kg, ip measured upto 24 hrs by LC-MS/MS analysis; type: ADME, organism-based; parameters: dose 10 mg/kg, time <=24; details: in vivo
[7] = Drug concentration in C57BL/6 mouse liver at 10 mg/kg, ip administered for 1 hr; type: ADME, organism-based; details: read-out: Ct
[8] = Tmax in C57BL/6 mouse at 10 mg/kg, ip measured upto 24 hrs by LC-MS/MS analysis; type: ADME, organism-based; details: in vivo
[9] = target: T1, Serine/threonine-protein kinase 3 (Homo sapiens) (UniProt Q13188); assay: Inhibition of STK3 in HEK293 cells assessed as increase in YAP/TAZ-TEAD activity at 10 uM incubated for 48 hrs by Dual-Glo luciferase assay; type: cell-based
T1 sequence (whole entry): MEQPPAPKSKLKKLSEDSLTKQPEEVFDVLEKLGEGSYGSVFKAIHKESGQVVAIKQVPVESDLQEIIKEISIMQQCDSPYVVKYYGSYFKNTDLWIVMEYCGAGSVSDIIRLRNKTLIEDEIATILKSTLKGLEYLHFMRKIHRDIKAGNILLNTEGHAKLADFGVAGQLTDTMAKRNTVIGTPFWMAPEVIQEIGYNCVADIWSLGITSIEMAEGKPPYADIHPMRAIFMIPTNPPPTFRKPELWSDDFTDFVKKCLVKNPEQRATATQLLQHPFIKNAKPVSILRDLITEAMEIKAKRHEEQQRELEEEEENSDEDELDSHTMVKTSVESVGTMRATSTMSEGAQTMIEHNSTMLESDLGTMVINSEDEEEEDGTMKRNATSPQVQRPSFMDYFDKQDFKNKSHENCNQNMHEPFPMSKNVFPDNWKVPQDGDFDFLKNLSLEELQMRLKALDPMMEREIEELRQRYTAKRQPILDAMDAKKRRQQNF

[10] = target: T2, Serine/threonine-protein kinase 3 (Homo sapiens, UniProt Q13188)
T2 sequence (Q13188 whole entry): T1 sequence (whole entry)
Description: Displacement of K5 tracer from full length C-terminal NanoLuc fused human STK3 expressed in HEK293T cells incubated for 2 hrs by NanoBRET assay

[11] = target: T2, Serine/threonine-protein kinase 3; remark: listed apart in the source
[12] = Drug concentration in C57BL/6 mouse plasma at 20 mg/kg, ip measured after 30 mins by LC-MS/MS analysis; type: ADME, organism-based
[13] = tested on: Mus musculus; assay: In vivo inhibition of STK3/4 in C57BL/6 mouse assessed as decrease in Thr35phosphorylated-MOB1 protein level in liver at 10 mg/kg, ip administered for 1 hr by Western blotting analysis; type: functional, organism-based
[14] = target: T3, Serine/threonine-protein kinase 4 (Homo sapiens) (UniProt Q13043); details: dose 20.0 µM
T3 sequence (whole entry): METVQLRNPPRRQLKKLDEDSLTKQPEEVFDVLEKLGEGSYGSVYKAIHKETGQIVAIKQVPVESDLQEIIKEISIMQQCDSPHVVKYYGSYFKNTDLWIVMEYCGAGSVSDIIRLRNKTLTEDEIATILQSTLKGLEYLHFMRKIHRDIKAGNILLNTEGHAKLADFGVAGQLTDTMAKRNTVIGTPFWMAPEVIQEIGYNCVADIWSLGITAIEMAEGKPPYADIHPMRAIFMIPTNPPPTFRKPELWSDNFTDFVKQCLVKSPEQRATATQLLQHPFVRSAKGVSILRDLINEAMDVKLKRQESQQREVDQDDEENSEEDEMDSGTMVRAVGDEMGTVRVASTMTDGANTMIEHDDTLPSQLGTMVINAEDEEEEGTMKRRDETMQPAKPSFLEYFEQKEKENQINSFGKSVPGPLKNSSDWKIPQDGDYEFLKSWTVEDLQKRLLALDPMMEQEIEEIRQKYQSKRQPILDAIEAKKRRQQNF
Description: Inhibition of recombinant N-terminal His6-tagged human STK4 (43 to 431 residues) expressed in Escherichia coli assessed as melting temperature at 20 uM by thermal shift assay (Rvb = 55 degreeC)

[15] = tested on: THP-1; assay: Antiproliferation activity against human THP-1 cells incubated for 72 hrs by celltiter-glo assay; type: functional, cell-based
[16] = tested on: MOLM-13; assay: Inhibition of MOB1 phosphorylation in human MOLM-13 cells assessed as decrease in pMOB1 activity at 1 uM preincubated for 4 hrs followed by H2O2 addition for 2 hrs by Western blotting analysis; type: cell-based; details: time 6.0 hrs
[17] = target: BMP-2-inducible protein kinase (Homo sapiens) (UniProt Q9NSY1); assay: Inhibition of BMP2K (unknown origin) by NanoBRET intracellular kinase assay; type: cell-based; details: time 2.0 hrs
Sequence of BMP-2-inducible protein kinase (Homo sapiens) (Q9NSY1 whole entry, looked up): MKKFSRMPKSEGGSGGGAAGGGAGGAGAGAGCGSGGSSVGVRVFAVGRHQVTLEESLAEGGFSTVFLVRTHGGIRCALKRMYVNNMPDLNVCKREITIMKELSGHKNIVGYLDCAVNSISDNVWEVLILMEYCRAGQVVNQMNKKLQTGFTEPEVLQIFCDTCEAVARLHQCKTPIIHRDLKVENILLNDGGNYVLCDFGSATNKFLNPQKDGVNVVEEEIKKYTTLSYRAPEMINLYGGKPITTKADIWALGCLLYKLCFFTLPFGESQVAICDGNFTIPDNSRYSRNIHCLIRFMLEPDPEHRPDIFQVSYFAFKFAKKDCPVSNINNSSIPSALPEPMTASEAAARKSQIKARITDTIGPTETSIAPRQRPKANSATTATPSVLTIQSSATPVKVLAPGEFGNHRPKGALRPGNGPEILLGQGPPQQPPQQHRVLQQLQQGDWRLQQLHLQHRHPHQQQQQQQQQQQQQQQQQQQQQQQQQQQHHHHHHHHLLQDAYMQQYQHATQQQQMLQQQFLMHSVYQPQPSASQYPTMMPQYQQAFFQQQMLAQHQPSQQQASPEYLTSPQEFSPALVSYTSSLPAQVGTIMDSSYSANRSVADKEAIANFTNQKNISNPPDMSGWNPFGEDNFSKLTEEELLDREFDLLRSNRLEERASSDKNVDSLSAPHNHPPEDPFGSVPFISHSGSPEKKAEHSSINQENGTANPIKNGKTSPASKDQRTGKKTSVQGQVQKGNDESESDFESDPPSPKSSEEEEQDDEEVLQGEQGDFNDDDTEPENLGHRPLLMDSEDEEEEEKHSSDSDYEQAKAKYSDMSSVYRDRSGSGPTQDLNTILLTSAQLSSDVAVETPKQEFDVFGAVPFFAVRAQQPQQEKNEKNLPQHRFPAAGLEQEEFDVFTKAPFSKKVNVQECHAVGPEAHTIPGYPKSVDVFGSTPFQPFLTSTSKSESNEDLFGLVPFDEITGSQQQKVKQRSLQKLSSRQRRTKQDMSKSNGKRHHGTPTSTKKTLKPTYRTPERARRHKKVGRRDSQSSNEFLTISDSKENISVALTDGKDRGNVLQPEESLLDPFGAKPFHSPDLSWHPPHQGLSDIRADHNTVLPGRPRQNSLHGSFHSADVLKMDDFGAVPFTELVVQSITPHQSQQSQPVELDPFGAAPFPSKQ

[18] = target: T4, Serine/threonine-protein kinase STK11 (Homo sapiens) (UniProt Q15831); assay: Inhibition of LKB1 (unknown origin) by NanoBRET intracellular kinase assay; type: cell-based; details: time 2.0 hrs
T4 sequence (whole entry): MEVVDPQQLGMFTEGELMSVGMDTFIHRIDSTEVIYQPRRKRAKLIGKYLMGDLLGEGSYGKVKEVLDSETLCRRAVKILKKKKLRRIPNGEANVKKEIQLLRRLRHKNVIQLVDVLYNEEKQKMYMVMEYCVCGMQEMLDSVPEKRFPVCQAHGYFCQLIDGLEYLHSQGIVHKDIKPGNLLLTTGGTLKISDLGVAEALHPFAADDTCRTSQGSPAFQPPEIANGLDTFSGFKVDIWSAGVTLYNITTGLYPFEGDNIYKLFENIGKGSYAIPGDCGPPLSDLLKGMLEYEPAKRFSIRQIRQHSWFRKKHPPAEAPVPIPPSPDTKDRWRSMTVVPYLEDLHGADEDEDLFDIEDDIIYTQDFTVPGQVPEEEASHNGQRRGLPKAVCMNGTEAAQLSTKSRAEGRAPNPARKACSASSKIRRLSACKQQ

[19] = target: T1, Serine/threonine-protein kinase 3 (Homo sapiens); assay: Inhibition of STK3 (unknown origin) by KdELECT assay
[20] = tested on: OCI-AML-3; assay: Antiproliferation activity against human OCI-AML-3 cells incubated for 72 hrs by celltiter-glo assay; type: functional, cell-based
[21] = target: Protein kinase C theta type (Homo sapiens) (UniProt Q04759); assay: Inhibition of wild type partial length human PRKCQ (L350 to S706 residues) expressed in bacterial expression system by KdELECT assay
Sequence of Protein kinase C theta type (Homo sapiens) (Q04759 whole entry, looked up, the tested form may be a part): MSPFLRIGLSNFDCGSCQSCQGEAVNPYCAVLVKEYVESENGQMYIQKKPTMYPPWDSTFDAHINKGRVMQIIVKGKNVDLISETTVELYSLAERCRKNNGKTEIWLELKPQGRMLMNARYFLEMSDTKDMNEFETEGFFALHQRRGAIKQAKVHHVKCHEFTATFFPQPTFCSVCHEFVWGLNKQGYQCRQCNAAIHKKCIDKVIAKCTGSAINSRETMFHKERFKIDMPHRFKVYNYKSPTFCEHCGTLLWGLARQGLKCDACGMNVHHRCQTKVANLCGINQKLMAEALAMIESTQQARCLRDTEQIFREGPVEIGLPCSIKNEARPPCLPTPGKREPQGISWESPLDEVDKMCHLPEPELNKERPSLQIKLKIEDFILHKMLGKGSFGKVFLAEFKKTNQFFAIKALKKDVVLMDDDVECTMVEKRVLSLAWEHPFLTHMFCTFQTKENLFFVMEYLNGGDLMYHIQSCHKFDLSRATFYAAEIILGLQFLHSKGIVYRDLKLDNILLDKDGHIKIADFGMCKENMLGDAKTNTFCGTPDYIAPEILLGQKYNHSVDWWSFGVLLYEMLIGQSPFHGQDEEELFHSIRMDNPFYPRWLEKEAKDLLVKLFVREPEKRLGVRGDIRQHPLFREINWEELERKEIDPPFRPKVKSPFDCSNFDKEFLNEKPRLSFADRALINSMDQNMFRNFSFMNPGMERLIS

[22] = target: T5, Serine/threonine-protein kinase 4 (Homo sapiens, UniProt Q13043)
T5 sequence (Q13043 whole entry): T3 sequence (whole entry)

[23] = Kinetic solubility of compound in PBS at pH 7.4; type: physicochemical; details: buffer
[24] = tested on: MV4-11; assay: Antiproliferation activity against human MV4-11 cells incubated for 72 hrs by celltiter-glo assay; type: functional, cell-based
[25] = target: T5, Serine/threonine-protein kinase 4; remark: listed apart in the source
Description: Displacement of K5 tracer from full length C-terminal NanoLuc fused human STK4 expressed in HEK293T cells incubated for 2 hrs by NanoBRET assay

[26] = target: T1, Serine/threonine-protein kinase 3 (Homo sapiens); assay: Inhibition of recombinant N-terminal His6-tagged human STK3 (18 to 311 residues) expressed in Escherichia coli assessed as melting temperature at 20 uM by thermal shift assay
[27] = target: T6, Serine/threonine-protein kinase RIO3 (Homo sapiens) (UniProt O14730); assay: Inhibition of wild type full length human RIOK3 (M1 to E519 residues) expressed in bacterial expression system by KdELECT assay
T6 sequence (whole entry): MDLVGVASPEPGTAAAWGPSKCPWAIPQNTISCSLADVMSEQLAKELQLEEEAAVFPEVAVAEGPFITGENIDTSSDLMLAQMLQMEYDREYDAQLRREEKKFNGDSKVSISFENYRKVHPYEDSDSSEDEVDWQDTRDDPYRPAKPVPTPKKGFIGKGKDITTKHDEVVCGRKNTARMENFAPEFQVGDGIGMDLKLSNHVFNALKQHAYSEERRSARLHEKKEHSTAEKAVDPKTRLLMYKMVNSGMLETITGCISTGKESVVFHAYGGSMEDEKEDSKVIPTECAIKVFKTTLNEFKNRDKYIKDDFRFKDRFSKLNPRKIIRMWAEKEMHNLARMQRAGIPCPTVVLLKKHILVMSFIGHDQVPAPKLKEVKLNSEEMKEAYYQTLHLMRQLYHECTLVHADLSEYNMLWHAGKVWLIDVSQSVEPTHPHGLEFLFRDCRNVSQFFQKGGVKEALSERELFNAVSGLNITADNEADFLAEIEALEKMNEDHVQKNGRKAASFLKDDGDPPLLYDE

[28] = tested on: Kasumi 1; assay: Antiproliferation activity against human Kasumi 1 cells incubated for 72 hrs by celltiter-glo assay; type: functional, cell-based
[29] = Permeability in human Caco-2 cells; type: ADME, cell-based
[30] = tested on: MOLM-13; assay: Antiproliferation activity against human MOLM-13 cells incubated for 72 hrs by celltiter-glo assay; type: functional, cell-based
[31] = tested on: SKNO-1; assay: Antiproliferation activity against human SKNO-1 cells incubated for 72 hrs by celltiter-glo assay; type: functional, cell-based
[32] = Inhibition of MOB1 phosphorylation in human MOLM-13 cells assessed as decrease in pMOB1 activity preincubated for 4 hrs followed by H2O2 addition for 2 hrs by Western blotting analysis; type: cell-based

Compound: NC(=O)c1cccc(-c2c[nH]c3ncnc(N4CCOCC4)c23)c1
- concentration at 2 h [1]: 2.5 µM
- t1/2 [2]: 42 min
- Cmax [3]: 11.9 µM
- concentration at 3 h [4]: 1.2 µM
- IC50 [5]: 2360 nM
- AUCt [6]: 9.5 µM·h
- concentration at 1 h [7]: 28 µM
- Tmax [8]: 30 min
- inhibition [9]: Active
- IC50 [10]: 303 nM
- IC50 [11]: 233 nM
- concentration at 0.5 h [12]: 15.9 µM
- inhibition [13]: Active
- Tm [14]: 63.3 °C

Compound: OC1CCN(c2ncnc3[nH]cc(-c4cccc(Cl)c4)c23)CC1
- Activity [15]: Dose-Dependent Effect
- t1/2 [2]: 594 min
- inhibition [16]: Active
- inhibition [17]: inactive
- Cmax [3]: 5.8 µM
- inhibition [18]: inactive
- IC50 [5]: 1340 nM
- inhibition [19]: Active
- Activity [20]: Dose-Dependent Effect
- AUCt [6]: 4.3 µM·h
- inhibition [21]: Active
- IC50 [22]: 80 nM
- Kinetic_solubility [23]: 189 µM
- Activity [24]: Dose-Dependent Effect
- IC50 [25]: 250 nM
- ΔTm [26]: > 5.2 °C
- inhibition [27]: Active
- Activity [28]: Dose-Dependent Effect
- Tmax [8]: 15 min
- permeability [29]: Permeable
- Activity [30]: Dose-Dependent Effect
- Activity [31]: Dose-Dependent Effect
- inhibition [9]: Active
- IC50 [10]: 433 nM
- IC50 [11]: 127 nM
- concentration at 0.5 h [12]: 11.6 µM
- inhibition [13]: Active

Compound: CC(=O)NC1CCN(c2ncnc3[nH]cc(-c4cccc(Cl)c4)c23)CC1
- Activity [15]: Dose-Dependent Effect
- t1/2 [2]: 318 min
- inhibition [17]: inactive
- Cmax [3]: 11.8 µM
- inhibition [18]: inactive
- IC50 [5]: 1390 nM
- inhibition [19]: Active
- Activity [20]: Dose-Dependent Effect
- AUCt [6]: 8.1 µM·h
- inhibition [21]: Active
- IC50 [22]: 26 nM
- IC50 ([24]; MV4-11, 72 h): 3700 nM
- IC50 [25]: 122 nM
- inhibition [27]: Active
- Activity [28]: Dose-Dependent Effect
- Tmax [8]: 15 min
- IC50 ([30]; MOLM-13, 72 h): 5800 nM
- Activity [31]: Dose-Dependent Effect
- IC50 [10]: 139 nM
- IC50 [32]: 413 nM
- IC50 [11]: 36 nM
- inhibition [13]: Active
